# How the values were obtained:
# Assay type in all cases: in vivo
# Digitaria ciliaris (Di) = experiment: Test Example 2: herbicidal effects by upland field soil treatment; conditions: 100 g of the active ingredient per 10 ares;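 note: grade of growth control; 5 = at least 90%; 4 = 70 to 90%; 3 = 50 to 70%; 2 = 30 to 50%; 1 = 10 to 30%; 0 = under 10%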
# Source text: (§1) (Test on Herbicidal Effects by Upland Field Soil Treatment)
# slender amaranth (Am) [1] = experiment: as above; conditions: 100 g of the active ingredient per 10 ares
# Source text: as §1
# [2] = system: common lambsquarters (Ch); experiment: as above; conditions: 100 g of the active ingredient per 10 ares
# Source text: as §1
# pale smartweed (Po) [3] = experiment: as above; conditions: 100 g of the active ingredient per 10 ares
# Source text: as §1
# rice flatsedge (Ci) [4] = experiment: as above; conditions: 100 g of the active ingredient per 10 ares
# Source text: as §1
# barnyardgrass (Ec) [5] = experiment: as above; conditions: 100 g of the active ingredient per 10 ares
# Source text: as §1
# wheat (Tr) = experiment: Test Example 5: crop plant selectivity by upland field soil treatment (wheat), phytotoxicity; design: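 grade of crop injury; 5 = at least 90%; 4 = 70 to 90%; 3 = 50 to 70%; 2 = 30 to 50%; 1 = 10 to 30%; 0 = under 10%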; conditions: 21st day after application
# Procedure: (§2) (Test on Crop Plant Selectivity by Upland Field Soil Treatment)
# (§3) In a plastic pot (surface area: 600 cm^2) filled with sand, wheat (Tr), Diaitaria ciliaris (Di), green foxtail (Se), pale smartweed (Po), slender amaranth (Am), common lambsquarters (Ch) and China jute (Ab) were sown and covered with soil. […] The plants were then cultured in a green house, and the evaluation of the herbicidal effects and phytotoxicity was conducted on the 21st day after the application in accordance with the standards as identified in Table 47. Symbol—represents “not tested”.
# slender amaranth (Am) [6] = experiment: Test Example 3: herbicidal effects by upland field foliage treatment; design: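 grade of growth control; 5 = at least 90%; 4 = 70 to 90%; 3 = 50 to 70%; 2 = 30 to 50%; 1 = 10 to 30%; 0 = under 10%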
# How it was run: (§4)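 Test plants had been raised from seed for 2 weeks in a greenhouse, in soil-covered sand pots of 120 cm^2, and were returned there after spraying.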
# Diaitaria ciliaris (Di) = experiment: as above; design: scale not given here
# How it was run: as §4
# [7] = system: common lambsquarters (Ch); experiment: as above; design: scale not given here
# How it was run: as §4
# pale smartweed (Po) [8] = experiment: as above; design: scale not given here
# How it was run: as §4
# rice flatsedge (Ci) [9] = experiment: as above; design: scale not given here
# How it was run: as §4
# barnyardgrass (Ec) [10] = experiment: as above; design: scale not given here
# How it was run: as §4
# China jute (Ab) [11] = experiment: Test Example 4: crop plant selectivity by upland field soil treatment (cotton), herbicidal effects; design: scale not given here; conditions: evaluated 21st day after application
# Procedure: as §2
# (§5) In a plastic pot (surface area: 600 cm^2) filled with sand, cotton (Go), Diaitaria ciliaris (Di), green foxtail (Se), pale smartweed (Po), slender amaranth (Am), common lambsquarters (Ch) and China jute (Ab) were sown and covered with soil. […] The plants were then cultured in a green house, and the evaluation of the herbicidal effects and phytotoxicity was conducted on the 21st day after the application in accordance with the standards as identified in Table 47. Symbol—represents “not tested”.
# slender amaranth (Am) [12] = experiment: as above; design: scale not given here; conditions: evaluated 21st day after application
# Procedure: as §2, §5
# [13] = system: common lambsquarters (Ch); experiment: as above; design: scale not given here; conditions: evaluated 21st day after application
# Procedure: as §2, §5
# pale smartweed (Po) [14] = experiment: as above; design: scale not given here; conditions: evaluated 21st day after application
# Procedure: as §2, §5
# green foxtail (Se) [15] = experiment: as above; design: scale not given here; conditions: evaluated 21st day after application
# Procedure: as §2, §5
# cotton (Go) = experiment: Test Example 4: crop plant selectivity by upland field soil treatment (cotton), phytotoxicity; design: scale not given here; conditions: evaluated 21st day after application
# Procedure: as §2, §5
# monochoria (Mo) = experiment: Test Example 1: herbicidal effects by paddy field soil treatment; conditions: 100 g of the active ingredient per 10 ares, 21st day after the application, index 0-5 of Table 47;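 note: grade of growth control; 5 = at least 90%; 4 = 70 to 90%; 3 = 50 to 70%; 2 = 30 to 50%; 1 = 10 to 30%; 0 = under 10%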
# How it was run: (§6)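 Scoring of herbicidal effect came 21 days after application of 100 g active ingredient per 10 ares to flooded (3 cm) paddy-soil pots sown with barnyardgrass, monochoria and bulrush, kept in a greenhouse.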
# barnyardgrass (Ec) [16] = experiment: as above; conditions: 100 g of the active ingredient per 10 ares, 21st day after the application, index 0-5 of Table 47
# How it was run: as §6
# bulrush (Sc) = experiment: as above; conditions: 100 g of the active ingredient per 10 ares, 21st day after the application, index 0-5 of Table 47;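 note: grade of growth control; 5 = at least 90%; 4 = 70 to 90%; 3 = 50 to 70%; 2 = 30 to 50%; 1 = 10 to 30%; 0 = under 10%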
# How it was run: as §6
# China jute (Ab) [17] = experiment: Test Example 5: crop plant selectivity by upland field soil treatment (wheat), herbicidal effects; design: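 grade of growth control; 5 = at least 90%; 4 = 70 to 90%; 3 = 50 to 70%; 2 = 30 to 50%; 1 = 10 to 30%; 0 = under 10%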; conditions: 21st day after application
# Procedure: as §2, §3
# slender amaranth (Am) [18] = experiment: as above; design: scale not given here; conditions: 21st day after application
# Procedure: as §2, §3
# [19] = system: common lambsquarters (Ch); experiment: as above; design: scale not given here; conditions: 21st day after application
# Procedure: as §2, §3
# pale smartweed (Po) [20] = experiment: as above; design: scale not given here; conditions: 21st day after application
# Procedure: as §2, §3
# green foxtail (Se) [21] = experiment: as above; design: scale not given here; conditions: 21st day after application
# Procedure: as §2, §3
# soybean (Gl) = experiment: Test Example 6: crop plant selectivity by upland field soil treatment (soybean), phytotoxicity; design: scale not given here; conditions: dose 6.3 g ai/10a, 21st day after application
# Procedure: as §2
# (§7) In a plastic pot (surface area: 600 cm^2) filled with sand, soybean (Gl), Diaitaria ciliaris (Di), green foxtail (Se), Johnsongrass (So), pale smartweed (Po), slender amaranth (Am), common lambsquarters (Ch) and China jute (Ab) were sown and covered with soil. […] The plants were then cultured in a green house, and the evaluation of the herbicidal effects and phytotoxicity was conducted on the 21st day after the application in accordance with the standards as identified in Table 47. Symbol—represents “not tested”.
# China jute (Ab) [22] = experiment: Test Example 6: crop plant selectivity by upland field soil treatment (soybean), herbicidal effects; design: scale not given here; conditions: dose 6.3 g ai/10a, 21st day after application
# Procedure: as §2, §7
# slender amaranth (Am) [23] = experiment: as above; design: scale not given here; conditions: dose 6.3 g ai/10a, 21st day after application
# Procedure: as §2, §7
# [24] = system: common lambsquarters (Ch); experiment: as above; design: scale not given here; conditions: dose 6.3 g ai/10a, 21st day after application
# Procedure: as §2, §7
# pale smartweed (Po) [25] = experiment: as above; design: scale not given here; conditions: dose 6.3 g ai/10a, 21st day after application
# Procedure: as §2, §7
# green foxtail (Se) [26] = experiment: as above; design: scale not given here; conditions: dose 6.3 g ai/10a, 21st day after application
# Procedure: as §2, §7
# [27] = 21st day after the application, index 0-5 of Table 47
# [28] = 100 g of the active ingredient per 10 ares, evaluated on the 14th day after treatment
# [29] = evaluated on the 21st day after application
# [30] = 100 g active ingredient per 10 ares, evaluated 14th day after treatment
smiles,measurement,setting,value
Cn1c(C(F)(F)F)ccc(-c2cc(Oc3ncccn3)c(Cl)cc2F)c1=O [Compound No. 1-27],Herbicidal effects Di,Digitaria ciliaris (Di); [27],5
same,Herbicidal effects Am,slender amaranth (Am) [1]; [27],5
same,Herbicidal effects Ch,[2]; [27],5
same,Herbicidal effects Po,pale smartweed (Po) [3]; [27],5
same,Herbicidal effects Ci,rice flatsedge (Ci) [4]; [27],5
same,Herbicidal effects Ec,barnyardgrass (Ec) [5]; [27],5
same,Phytotoxicity Tr,wheat (Tr); dose 1.6 g ai/10a,1
same,Herbicidal effects Am,slender amaranth (Am) [6]; [28],5
same,Herbicidal effects Di,Diaitaria ciliaris (Di); [28],5
same,Herbicidal effects Ch,[7]; [28],5
same,Herbicidal effects Po,pale smartweed (Po) [8]; [28],5
same,Herbicidal effects Ci,rice flatsedge (Ci) [9]; [28],5
same,Herbicidal effects Ec,barnyardgrass (Ec) [10]; [28],5
same,Herbicidal effects Ab,China jute (Ab) [11]; dose 1.6 g ai/10 a,5
same,Herbicidal effects Ab,China jute (Ab) [11]; dose 6.3 g ai/10 a,5
same,Herbicidal effects Am,slender amaranth (Am) [12]; dose 1.6 g ai/10 a,5
same,Herbicidal effects Am,slender amaranth (Am) [12]; dose 6.3 g ai/10 a,5
same,Herbicidal effects Ch,[13]; dose 1.6 g ai/10 a,5
same,Herbicidal effects Ch,[13]; dose 6.3 g ai/10 a,5
same,Herbicidal effects Po,pale smartweed (Po) [14]; dose 1.6 g ai/10 a,5
same,Herbicidal effects Po,pale smartweed (Po) [14]; dose 6.3 g ai/10 a,5
same,Herbicidal effects Se,green foxtail (Se) [15]; dose 1.6 g ai/10 a,5
same,Herbicidal effects Se,green foxtail (Se) [15]; dose 6.3 g ai/10 a,5
same,Phytotoxicity Go,cotton (Go); dose 1.6 g ai/10 a,1
same,Phytotoxicity Go,cotton (Go); dose 6.3 g ai/10 a,1
same,Herbicidal effects Mo,monochoria (Mo),5
same,Herbicidal effects Ec,barnyardgrass (Ec) [16],5
same,Herbicidal effects Sc,bulrush (Sc),5
same,Herbicidal effects Ab,China jute (Ab) [17]; dose 1.6 g ai/10a,5
same,Herbicidal effects Am,slender amaranth (Am) [18]; dose 1.6 g ai/10a,5
same,Herbicidal effects Ch,[19]; dose 1.6 g ai/10a,5
same,Herbicidal effects Po,pale smartweed (Po) [20]; dose 1.6 g ai/10a,5
same,Herbicidal effects Se,green foxtail (Se) [21]; dose 1.6 g ai/10a,5
"C#CCN1C(=O)C(C)Oc2cc(Cl)c(-c3ccc(C(F)(F)F)n(C)c3=O)cc21 (stereo not drawn) [Compound No. 2′-1, 3-[7-chloro-2,3-dihyro-2-methyl-4-(2-propynyl)-1,4-benzoxazin-3-on-6-yl]-6-trifluoromethyl-1-methyl-2(1H)-pyridone]",Herbicidal effects Di,Digitaria ciliaris (Di); [29],5
same,Herbicidal effects Am,slender amaranth (Am) [1]; [29],5
same,Herbicidal effects Ch,[2]; [29],5
same,Herbicidal effects Po,pale smartweed (Po) [3]; [29],5
same,Herbicidal effects Ci,rice flatsedge (Ci) [4]; [29],5
same,Herbicidal effects Ec,barnyardgrass (Ec) [5]; [29],5
same,Phytotoxicity Gl,soybean (Gl),1
same,Phytotoxicity Tr,wheat (Tr); dose 6.3 g ai/10a,2
same,Herbicidal effects Am,slender amaranth (Am) [6]; [30],5
same,Herbicidal effects Di,Diaitaria ciliaris (Di); [30],5
same,Herbicidal effects Ch,[7]; [30],5
same,Herbicidal effects Po,pale smartweed (Po) [8]; [30],5
same,Herbicidal effects Ci,rice flatsedge (Ci) [9]; [30],5
same,Herbicidal effects Ec,barnyardgrass (Ec) [10]; [30],5
same,Herbicidal effects Ab,China jute (Ab) [22],5
same,Herbicidal effects Am,slender amaranth (Am) [23],5
same,Herbicidal effects Ch,[24],5
same,Herbicidal effects Po,pale smartweed (Po) [25],5
same,Herbicidal effects Se,green foxtail (Se) [26],5
same,Herbicidal effects Ab,China jute (Ab) [11]; dose 6.3 g ai/10 a,5
same,Herbicidal effects Am,slender amaranth (Am) [12]; dose 6.3 g ai/10 a,5
same,Herbicidal effects Ch,[13]; dose 6.3 g ai/10 a,5
same,Herbicidal effects Po,pale smartweed (Po) [14]; dose 6.3 g ai/10 a,5
same,Herbicidal effects Se,green foxtail (Se) [15]; dose 6.3 g ai/10 a,5
same,Phytotoxicity Go,cotton (Go); dose 6.3 g ai/10 a,1
same,Herbicidal effects Mo,monochoria (Mo),5
same,Herbicidal effects Ec,barnyardgrass (Ec) [16],5
same,Herbicidal effects Sc,bulrush (Sc),5
same,Herbicidal effects Ab,China jute (Ab) [17]; dose 6.3 g ai/10a,5
same,Herbicidal effects Am,slender amaranth (Am) [18]; dose 6.3 g ai/10a,5
same,Herbicidal effects Ch,[19]; dose 6.3 g ai/10a,5
same,Herbicidal effects Po,pale smartweed (Po) [20]; dose 6.3 g ai/10a,5
same,Herbicidal effects Se,green foxtail (Se) [21]; dose 6.3 g ai/10a,5
